Measurements: US11639350B2, “Heteroaryldihydropyrimidine derivatives and methods of treating hepatitis B infections” (Janssen Pharmaceutica NV, priority 2018, dated 2023)

Legend:
[1] = Cytotoxicity determination in HepG2.2.15 cells (CCK-8); format: cell-based; conditions: human, 6 days of compound treatment, CCK-8, highest concentration 100 μM
Outline: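 CC50 is from CCK-8 absorbance (450 nm, 630 nm reference) after 2.5 h with reagent. Before that, compounds were applied for six days, top concentration 100 μM, eight threefold dilutions, one mid-course medium change, to stably HBV-integrated HepG2.2.15 cells plated at 5,000/well in 2% FBS.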

HBV = HBV inhibitory activity: HBV DNA in the culture medium of HepG2.2.15 cells by q-PCR; format: cell-based; conditions: Hepatitis B virus, HepG2.2.15, 144 h, HepG2.2.15 cells, 6 days of compound treatment, HBV DNA in culture medium by q-PCR, highest concentration 10 μM; read-out: EC50
Outline: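 Supernatant HBV DNA quantified by q-PCR after a 6-day compound exposure, with one mid-course medium change, of HepG2.2.15 cells (stably integrated HBV; 40,000 per well, 2% FBS). Eight-point 3-fold series topped at 10 μM for antiviral EC50; separate plates of 5,000 cells per well with 100 μM top give CC50.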

Structure (SMILES)	CC50 at 6 days [1]	EC50 (HBV)
CCOC(=O)C1=C(C2CCN(S(=O)(=O)CCO)CC2)NC(c2nccs2)=NC1c1ccc(F)c(F)c1Cl (single isomer, unassigned) [Compound 356B, Ethyl 4-(2-chloro-3,4-difluorophenyl)-6-(1-((2-hydroxyethyl)sulfonyl)piperidin-4-yl)-2-(thiazol-2-yl)-1,4-dihydropyrimidine-5-carboxylate]	12200 nM	6 nM
COC(=O)C1=C(C2CCN(C(C)=O)CC2)NC(c2nccs2)=NC1c1ccc(F)cc1Cl (stereo not drawn) [Compound 2, Methyl 6-(1-acetylpiperidin-4-yl)-4-(2-chloro-4-fluorophenyl)-2-(thiazol-2-yl)-1,4-dihydropyrimidine-5-carboxylate]	98400 nM	232 nM
COC(=O)C1=C([C@H]2CC[C@H](N(CCO)C(C)=O)CC2)NC(c2nccs2)=NC1c1ccc(F)c(F)c1Cl (single isomer, unassigned) [Compound 433B, (trans)-Methyl 4-(2-chloro-3,4-difluorophenyl)-6-(4-(N-(2-hydroxyethyl)acetamido)cyclohexyl)-2-(thiazol-2-yl)-1,4-dihydropyrimidine-5-carboxylate]	17400 nM	59 nM
COC(=O)C1=C([C@@H]2CCN(S(=O)(=O)CC(F)(F)F)C2)NC(c2nccs2)=NC1c1ccc(F)cc1Cl (stereo partly drawn) [Compound 364, Methyl 4-(2-chloro-4-fluorophenyl)-2-(thiazol-2-yl)-6-((R)-1-((2,2,2-trifluoroethyl)sulfonyl)pyrrolidin-3-yl)-1,4-dihydropyrimidine-5-carboxylate]	> 100000 nM	208 nM
CCOC(=O)C1=C([C@H]2CC[C@H](C(=O)O)CC2)NC(c2nccs2)=NC1c1ccccc1Br (stereo partly drawn) [Compound 148A, (trans)-4-(6-(2-bromophenyl)-5-(ethoxycarbonyl)-2-(thiazol-2-yl)-3,6-dihydropyrimidin-4-yl)cyclohexane-1-carboxylic Acid]	29400 nM	97 nM
COC(=O)C1=C(C2CCN(S(=O)(=O)C3CC(C)(C(=O)O)C3)CC2)NC(c2nccs2)=NC1c1ccc(F)cc1Cl (stereo not drawn) [Compound 141, (trans)-3-((4-(6-(2-chloro-4-fluorophenyl)-5-(methoxycarbonyl)-2-(thiazol-2-yl)-3,6-dihydropyrimidin-4-yl)piperidin-1-yl)sulfonyl)-1-methylcyclobutane-1-carboxylic Acid]	30700 nM	51 nM
COC(=O)C1=C([C@H]2CC[C@H](N(CCCO)S(C)(=O)=O)CC2)NC(c2nccs2)=NC1c1ccc(F)cc1Cl (single isomer, unassigned) [Compound 431B, (trans)-Methyl 4-(2-chloro-4-fluorophenyl)-6-(4-(N-(3-hydroxypropyl)methylsulfonamido)cyclohexyl)-2-(thiazol-2-yl)-1,4-dihydropyrimidine-5-carboxylate]	28100 nM	52 nM
COC(=O)C1=C([C@H]2C[C@@H](NS(C)(=O)=O)C2)NC(c2nccs2)=NC1c1ccc(F)cc1Cl (single isomer, unassigned) [Compound 206D, (cis)-Methyl 4-(2-chloro-4-fluorophenyl)-6-(3-(methylsulfonamido)cyclobutyl)-2-(thiazol-2-yl)-1,4-dihydropyrimidine-5-carboxylate]	39200 nM	389 nM
COC(=O)C1=C([C@H]2CC[C@H](C(=O)O)CC2)NC(c2nccs2)=NC1c1ccc(F)c(F)c1Cl (relative stereo) [Compound 289A, (trans)-4-(6-(2-chloro-3,4-difluorophenyl)-5-(methoxycarbonyl)-2-(thiazol-2-yl)-3,6-dihydropyrimidin-4-yl)cyclohexanecarboxylic Acid]	24200 nM	15 nM
COC(=O)C1=C(C23CC(NS(C)(=O)=O)(C2)C3)NC(c2nccs2)=NC1c1ccc(F)c(F)c1Cl (stereo not drawn) [Compound 204A, Methyl 4-(2-chloro-3,4-difluorophenyl)-6-(3-(methyl-sulfonamido)bicyclo[0.1.1.1]pentan-1-yl)-2-(thiazol-2-yl)-1,4-dihydropyrimidine-5-carboxylate]	23800 nM	7 nM
COC(=O)C1=C(C2CCN(S(=O)(=O)C3CC3)CC2)NC(c2nccs2)=NC1c1ccc(F)cc1Cl (stereo not drawn) [Compound 100, Methyl 4-(2-chloro-4-fluorophenyl)-6-(1-(cyclopropylsulfonyl)-piperidin-4-yl)-2-(thiazol-2-yl)-1,4-dihydropyrimidine-5-carboxylate]	7200 nM	166 nM
COC(=O)C1=C(C2CN(S(=O)(=O)C3CCC3)C2)NC(c2nccs2)=NC1c1ccc(F)cc1Cl (stereo not drawn) [Compound 80, Methyl 4-(2-chloro-4-fluorophenyl)-6-(1-(cyclobutylsulfonyl)-azetidin-3-yl)-2-(thiazol-2-yl)-1,4-dihydropyrimidine-5-carboxylate]	6300 nM	107 nM
COC(=O)C1=C(C2CCN(S(=O)(=O)C3CCC(C(=O)OC(C)(C)C)CC3)CC2)NC(c2nccs2)=NC1c1ccc(F)cc1Cl (single isomer, unassigned) [Compound 312X, Methyl 6-(1-((4-(tert-butoxycarbonyl)cyclohexyl)sulfonyl)-piperidin-4-yl)-4-(2-chloro-4-fluorophenyl)-2-(thiazol-2-yl)-1,4-dihydropyrimidine-5-carboxylate]	> 100000 nM	97 nM
COC(=O)C1=C([C@H]2C[C@H](NC(C)=O)C2)NC(c2nccs2)=NC1c1ccc(F)cc1Cl (single isomer, unassigned) [Compound 89R, trans-Methyl 6-(3-acetamidocyclobutyl)-4-(2-chloro-4-fluoro-phenyl)-2-(thiazol-2-yl)-1,4-dihydropyrimidine-5-carboxylate]	17200 nM	112 nM
CCS(=O)(=O)N1CCC(C2=C(C(=O)OC)C(c3ccc(F)cc3Cl)N=C(c3nccs3)N2)CC1 (stereo not drawn) [Compound 101, Methyl 4-(2-chloro-4-fluorophenyl)-6-(1-(ethylsulfonyl)piperidin-4-yl)-2-(thiazol-2-yl)-1,4-dihydropyrimidine-5-carboxylate]	38000 nM	210 nM
CCOC(=O)C1=C(C2CCN(S(=O)(=O)[C@H]3C[C@H](C(=O)O)C3)CC2)NC(c2ncc(F)cc2F)=NC1c1ccc(F)c(F)c1Cl (stereo partly drawn) [Compound 352B]	29400 nM	11 nM
COC(=O)C1=C(C2CCN(S(=O)(=O)c3cn[nH]c3)CC2)NC(c2nccs2)=NC1c1ccc(F)c(F)c1Cl (stereo not drawn) [Compound 324, methyl 6-(1-((1H-pyrazol-4-yl)sulfonyl)piperidin-4-yl)-4-(2-chloro-3,4-difluorophenyl)-2-(thiazol-2-yl)-1,4-dihydropyrimidine-5-carboxylate]	9800 nM	5 nM
COC(=O)C1=C(C2CCN(S(=O)(=O)c3cn(C)cn3)CC2)NC(c2nccs2)=NC1c1ccc(F)cc1Cl (stereo not drawn) [Compound 201A, Methyl 4-(2-chloro-4-fluorophenyl)-6-(1-((1-methyl-1H-imidazol-4-yl)sulfonyl)piperidin-4-yl)-2-(thiazol-2-yl)-1,4-dihydropyrimidine-5-carboxylate]	15700 nM	53 nM
COC(=O)C1=C(C2CCN(S(=O)(=O)c3cnn(C4CC4)c3)CC2)NC(c2nccs2)=NC1c1ccc(F)cc1Cl (stereo not drawn) [Compound 254]	> 100000 nM	47 nM
COC(=O)C1=C([C@H]2CC[C@H](N(CCO)CC(F)(F)F)CC2)NC(c2nccs2)=NC1c1ccc(F)c(F)c1Cl (single isomer, unassigned) [Compound 434B, (trans)-Methyl 4-(2-chloro-3,4-difluorophenyl)-6-(4-((2-hydroxyethyl)(2,2,2-trifluoroethyl)amino)cyclohexyl)-2-(thiazol-2-yl)-1,4-dihydropyrimidine-5-carboxylate]	6800 nM	128 nM
COC(=O)C1=C([C@H]2CC[C@H](NS(=O)(=O)C3COC3)CC2)NC(c2nccs2)=NC1c1ccc(F)cc1Cl (single isomer, unassigned) [Compound 384B, (trans)-Methyl 4-(2-chloro-4-fluorophenyl)-6-(4-(oxetane-3-sulfonamido)cyclohexyl)-2-(thiazol-2-yl)-1,4-dihydropyrimidine-5-carboxylate]	34000 nM	65 nM
CCOC(=O)C1=C([C@H]2CC[C@H](C(=O)O)CC2)NC(c2nccs2)=NC1c1ccc(F)c(F)c1Br (stereo partly drawn) [Compound 347B, (trans)-4-(6-(2-bromo-3,4-difluorophenyl)-5-(ethoxycarbonyl)-2-(thiazol-2-yl)-3,6-dihydropyrimidin-4-yl)cyclohexanecarboxylic Acid]	31400 nM	110 nM
CCOC(=O)C[C@H]1CC[C@H](C2=C(C(=O)OC)C(c3cccc(F)c3Cl)N=C(c3nccs3)N2)CC1 (relative stereo) [Compound 28, Methyl 4-(2-chloro-3-fluorophenyl)-6-(trans-4-(2-ethoxy-2-oxoethyl)-cyclohexyl)-2-(thiazol-2-yl)-1,4-dihydropyrimidine-5-carboxylate]	49300 nM	407 nM
CNS(=O)(=O)N1CCC(C2=C(C(=O)OC)C(c3cccc(F)c3Cl)N=C(c3nccs3)N2)CC1 (single isomer, unassigned) [Compound 115B, 4-(2-Chloro-3-fluoro-phenyl)-6-(1-methylsulfamoyl-piperidin-4-yl)-2-thiazol-2-yl-1,4-dihydro-pyrimidine-5-carboxylic Acid Methyl Ester]	19100 nM	342 nM
